Laboratory results taken from publication PMC12396409, “Screening and hit evaluation of a microbial metabolite library against the pathogenic Plasmodium falciparum and Toxoplasma gondii parasites” (International Journal for Parasitology: Drugs and Drug …, 2025).
Like-named read-outs stand apart in the source and are kept apart here.

Legend:
[1] = system: P. falciparum 3D7 parasites; experiment: P. falciparum growth inhibition assay, 1-cycle (72 h treatment), SYBR DNA staining (library screen at 2 μg/mL and dose-response); format: cell-based, Plasmodium falciparum; settings: for activity at 2 µg/mL: Plasmodium falciparum, 3D7, 72 h
[2] = system: P. falciparum 3D7 parasites; experiment: P. falciparum growth inhibition assay, 2-cycle (120 h treatment), delayed-death screen and dose-response; format: cell-based, Plasmodium falciparum; settings: for activity at 2 µg/mL: Plasmodium falciparum, 3D7, 120 h
[3] = system: T. gondii RH strain (RH-Tub-eYFP) tachyzoites; experiment: microbe, parasite or virus in culture; format: cell-based, Toxoplasma gondii; settings: 72 h; for percent parasite growth at 2 µg/mL: Toxoplasma gondii
[4] = P. falciparum, 72 h, screen at 2 μg/mL, replicate 1
[5] = P. falciparum, 72 h, screen at 2 μg/mL, replicate 2
[6] = P. falciparum, 120 h, screen at 2 μg/mL, replicate 1
[7] = P. falciparum, 120 h, screen at 2 μg/mL, replicate 2
[8] = T. gondii, screen at 2 μg/mL, replicate 1
[9] = T. gondii, screen at 2 μg/mL, replicate 2
[10] = library screen at 2 μg/mL, 72 h, % growth, replicate 1
[11] = library screen at 2 μg/mL, 72 h, % growth, replicate 2
[12] = library screen at 2 μg/mL, 120 h, % growth, replicate 1
[13] = library screen at 2 μg/mL, 120 h, % growth, replicate 2
[14] = library screen at 2 μg/mL, % growth, replicate 1
[15] = library screen at 2 μg/mL, % growth, replicate 2
[16] = P. falciparum 3D7, 72 h, library screen at 2 μg/mL, % growth, replicate 1
[17] = P. falciparum 3D7, 72 h, library screen at 2 μg/mL, % growth, replicate 2
[18] = P. falciparum 3D7, 120 h, library screen at 2 μg/mL, % growth, replicate 1
[19] = P. falciparum 3D7, 120 h, library screen at 2 μg/mL, % growth, replicate 2
[20] = T. gondii RH, library screen at 2 μg/mL, % growth, replicate 1
[21] = T. gondii RH, library screen at 2 μg/mL, % growth, replicate 2

Q: What does the source list for `Cc1cc(=O)c2c(o1)-c1c(cc(O)c(O)c1C(=O)O)OC2` [Citromycetin]?
A: Pf_72h_%Growth_Rep1 [1, 4]: 89.81%; Pf_72h_%Growth_Rep2 [1, 5]: 87.50%; Pf_120h_%Growth_Rep1 [2, 6]: 103.91%; Pf_120h_%Growth_Rep2 [2, 7]: 96.05%; Tg_72h_%Growth_Rep1 [3, 8]: 134.75%; Tg_72h_%Growth_Rep2 [3, 9]: 97.97%

Q: What does the source list for `CC(=O)O[C@@H]1[C@@H]2O[C@H]2[C@@](C)(O)C(=O)[C@@H](C)C/C=C\[C@H]2[C@H](O)C(C)=C(C)[C@H]3[C@H](Cc4ccccc4)NC(=O)[C@@]123` [Epoxycytochalasin C, 19,20-]?
A: Pf_72h_%Growth_Rep1 [1, 10]: 3.41%; Pf_72h_%Growth_Rep2 [1, 11]: 4.96%; Pf_120h_%Growth_Rep1 [2, 12]: 4.88%; Pf_120h_%Growth_Rep2 [2, 13]: 15.35%; Tg_72h_%Growth_Rep1 [3, 14]: 1.38%; Tg_72h_%Growth_Rep2 [3, 15]: 1.44%

Q: Which activity at 2 µg/mL ([1]; P. falciparum, 72 h, screen at 2 μg/mL, replicate 1, read-out: Pf_72h_%Growth_Rep1) does the source give for `COC(=O)[C@]1(Cc2ccc(O)c(CC=C(C)C)c2)OC(=O)C(O)=C1c1ccc(O)cc1` [Butyrolactone I] here?
A: 72.4%

Q: What about the activity at 2 µg/mL ([1]; P. falciparum, 72 h, screen at 2 μg/mL, replicate 2, read-out: Pf_72h_%Growth_Rep2) of the same molecule?
A: 88.5%

Q: What about the activity at 2 µg/mL ([2]; P. falciparum, 120 h, screen at 2 μg/mL, replicate 1, read-out: Pf_120h_%Growth_Rep1) of the same molecule?
A: 147%

Q: And the activity at 2 µg/mL ([2]; P. falciparum, 120 h, screen at 2 μg/mL, replicate 2, read-out: Pf_120h_%Growth_Rep2)?
A: 92.6%

Q: What about the percent parasite growth at 2 µg/mL ([3]; T. gondii, screen at 2 μg/mL, replicate 1, read-out: Tg_72h_%Growth_Rep1) of the same molecule?
A: 85.8%

Q: And the percent parasite growth at 2 µg/mL ([3]; T. gondii, screen at 2 μg/mL, replicate 2, read-out: Tg_72h_%Growth_Rep2)?
A: 88.7%

Q: Which Pf_72h_%Growth_Rep1 [1, 10] does the source give for `CO[C@H]1C[C@H](O[C@@H]2/C(C)=C/C[C@@H]3C[C@@H](C[C@]4(C=C[C@H](C)[C@@H](C5CCCCC5)O4)O3)OC(=O)[C@@H]3C=C(C)[C@@H](O)[C@H]4OC/C(=C\C=C\[C@@H]2C)[C@]43O)O[C@@H](C)[C@@H]1O` [Doramectin monosaccharide] here?
A: 77.72%

Q: What about the Pf_72h_%Growth_Rep2 [1, 11] of the same molecule?
A: 82.97%

Q: What about the Pf_120h_%Growth_Rep1 [2, 12] of the same molecule?
A: 94.58%

Q: What about the Pf_120h_%Growth_Rep2 [2, 13] of the same molecule?
A: 82.00%

Q: And the Tg_72h_%Growth_Rep1 [3, 14]?
A: 100.60%

Q: And the Tg_72h_%Growth_Rep2 [3, 15]?
A: 107.16%

Q: Which results are given for `CCOC(=O)c1c2ccocc-2oc1=O` [BIA-K1981]?
A: Pf_72h_%Growth_Rep1 [1, 16]: 72.42%; Pf_72h_%Growth_Rep2 [1, 17]: 90.55%; Pf_120h_%Growth_Rep1 [2, 18]: 169.06%; Pf_120h_%Growth_Rep2 [2, 19]: 89.57%; Tg_72h_%Growth_Rep1 [3, 20]: 89.77%; Tg_72h_%Growth_Rep2 [3, 21]: 96.78%

Q: With `C=CC(C)(C)C12CC3C(=O)Nc4ccccc4C(=O)N3C1Nc1ccccc12` (stereo not drawn) [Aszonalenin] as the molecule, how does the Pf_72h_%Growth_Rep1 [1, 10] read?
A: 81.55%

Q: What about the Pf_72h_%Growth_Rep2 [1, 11] of the same molecule?
A: 89.57%

Q: What about the Pf_120h_%Growth_Rep1 [2, 12] of the same molecule?
A: 90.27%

Q: And the Pf_120h_%Growth_Rep2 [2, 13]?
A: 94.67%

Q: What about the Tg_72h_%Growth_Rep1 [3, 14] of the same molecule?
A: 156.81%

Q: And the Tg_72h_%Growth_Rep2 [3, 15]?
A: 98.02%

Q: With `O=c1cc2ccocc-2o1` [BIA-K1792] as the molecule, how does the Pf_72h_%Growth_Rep1 [1, 16] read?
A: 80.31%

Q: And the Pf_72h_%Growth_Rep2 [1, 17]?
A: 115.37%

Q: And the Pf_120h_%Growth_Rep1 [2, 18]?
A: 89.46%

Q: And the Pf_120h_%Growth_Rep2 [2, 19]?
A: 104.67%

Q: What about the Tg_72h_%Growth_Rep1 [3, 20] of the same molecule?
A: 114.69%

Q: And the Tg_72h_%Growth_Rep2 [3, 21]?
A: 93.25%

Q: How did the Pf_72h_%Growth_Rep1 ([1]; P. falciparum, 72 h, parasite screen 2 μg/mL, % growth, replicate 1) turn out when `C=CC(C)(C)c1[nH]cnc1/C=C1/NC(=O)[C@@H]2C[C@@]3(C(C)(C)C=C)c4ccccc4N[C@H]3N2C1=O` [Roquefortine E] was run?
A: 11.66%

Q: What about the Pf_72h_%Growth_Rep2 ([1]; P. falciparum, 72 h, parasite screen 2 μg/mL, % growth, replicate 2) of the same molecule?
A: 6.85%

Q: And the Pf_120h_%Growth_Rep1 ([2]; P. falciparum, 120 h, parasite screen 2 μg/mL, % growth, replicate 1)?
A: 14.59%

Q: And the Pf_120h_%Growth_Rep2 ([2]; P. falciparum, 120 h, parasite screen 2 μg/mL, % growth, replicate 2)?
A: 17.38%

Q: What about the Tg_72h_%Growth_Rep1 ([3]; T. gondii, parasite screen 2 μg/mL, % growth, replicate 1) of the same molecule?
A: 75.06%

Q: And the Tg_72h_%Growth_Rep2 ([3]; T. gondii, parasite screen 2 μg/mL, % growth, replicate 2)?
A: 97.61%

Q: For `CCC(C)CCCCCCC(=O)N[C@H]1[C@H](Oc2c3cc4cc2Oc2ccc(cc2Cl)[C@@H](O[C@@H]2O[C@H](CO)[C@@H](O)[C@H](O)[C@H]2NC(C)=O)[C@@H]2NC(=O)[C@H](NC(=O)[C@@H]4NC(=O)[C@H]4NC(=O)[C@@H](Cc5ccc(c(Cl)c5)O3)NC(=O)[C@H](N)c3ccc(O)c(c3)Oc3cc(O)cc4c3)c3ccc(O)c(c3)-c3c(O[C@H]4O[C@H](CO)[C@@H](O)[C@H](O)[C@@H]4O)cc(O)cc3[C@@H](C(=O)O)NC2=O)O[C@H](CO)[C@@H](O)[C@@H]1O` (stereo partly drawn) [Teicoplanin A2-4], which Pf_72h_%Growth_Rep1 [1, 4] is on record?
A: 81.32%

Q: What about the Pf_72h_%Growth_Rep2 [1, 5] of the same molecule?
A: 78.26%

Q: And the Pf_120h_%Growth_Rep1 [2, 6]?
A: 64.36%

Q: And the Pf_120h_%Growth_Rep2 [2, 7]?
A: 53.42%

Q: And the Tg_72h_%Growth_Rep1 [3, 8]?
A: 112.03%

Q: What about the Tg_72h_%Growth_Rep2 [3, 9] of the same molecule?
A: 79.02%
